Assay results from patent publication US8022248B2, “Substituted acids for the treatment of respiratory diseases” (AstraZeneca AB, priority 2004, dated 2011).
pIC50: −log10 of the molar value.

These compounds were tested against T1, rhCRTh2 (Homo sapiens, UniProt Q9Y5Y4) (assay: Ligand binding assay: [3H]PGD2 binding to HEK cell membranes containing CRTh2 (SPA beads)). Conditions: [3H]PGD2 displacement, HEK cell membranes expressing rhCRTh2/Gα16, 2 hours room temperature.
T1 construct: expressed in transfected cells; host or cells: HEK cells (membrane preparation)
T1 sequence (Q9Y5Y4 1-395): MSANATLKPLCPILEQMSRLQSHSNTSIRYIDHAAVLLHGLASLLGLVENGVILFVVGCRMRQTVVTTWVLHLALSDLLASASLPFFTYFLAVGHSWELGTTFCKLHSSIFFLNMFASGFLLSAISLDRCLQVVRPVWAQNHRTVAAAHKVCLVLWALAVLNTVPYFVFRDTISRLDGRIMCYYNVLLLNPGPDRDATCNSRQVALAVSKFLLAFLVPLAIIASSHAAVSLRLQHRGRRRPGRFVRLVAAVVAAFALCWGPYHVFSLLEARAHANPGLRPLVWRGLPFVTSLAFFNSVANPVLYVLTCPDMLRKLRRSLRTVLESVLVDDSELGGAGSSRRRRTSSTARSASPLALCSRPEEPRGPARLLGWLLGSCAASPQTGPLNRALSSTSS
Procedure: [^3H]PGD2 was purchased from Perkin Elmer Life Sciences with a specific activity of 100-210 Ci/mmol. All other chemicals were of analytical grade.
HEK cells expressing rhCRTh2/Gα16 were routinely maintained in DMEM containing 10% Foetal Bovine Serum (HyClone), 1 mg/ml geneticin, 2 mM L-glutamine and 1% non-essential amino acids. For the preparation of membranes, the adherent transfected HEK cells were grown to confluence in two layer tissue culture factories (Fisher, catalogue number TKT-170-070E). Maximal levels of receptor expression were induced by addition of […] sodium butyrate for the last 18 hours of culture. The adherent cells were washed once with phosphate buffered saline (PBS, 50 ml per cell factory) and detached by the addition of 50 ml per cell factory of ice-cold membrane homogenisation buffer [20 mM HEPES (pH 7.4), 0.1 mM dithiothreitol, 1 mM EDTA, 0.1 mM phenyl methyl sulphonyl fluoride and 100 μg/ml bacitracin]. […] The final pellet was re-suspended in 4 ml of membrane homogenisation buffer per cell factory used and the protein content determined. […]
All assays were performed in Corning clear bottomed, white 96-well NBS plates (Fisher). […] (The optimum coating concentrations were determined for each batch of membranes) The beads were pelleted by centrifugation (800×g for 7 minutes at 4° C.), washed once with assay buffer (50 mM HEPES pH 7.4 containing 5 mM magnesium chloride) and finally re-suspended in assay buffer at a bead concentration of 10 mg/ml.
Each assay contained 20 μl of 6.25 nM [^3H]PGD2, 20 μl membrane saturated SPA beads both in assay buffer and 10 μl of compound solution or 13,14-dihydro-15-keto prostaglandin D2 (DK-PGD2, for determination of non-specific binding, Cayman chemical company). […] The assay plate was incubated at room temperature for 2 hours and counted on a Wallac Microbeta liquid scintillation counter (1 minute per well).
For `CCS(=O)(=O)c1ccc(Sc2cc(Cl)ccc2SCC(=O)O)c(Cl)c1` [Example 5, [(4-Chloro-2-{[2-chloro-4-(ethylsulfonyl)phenyl]thio}phenyl)thio]acetic acid], the pIC50 was 8.60.
In the case of `CCS(=O)(=O)c1ccc(Oc2cc(Cl)ccc2SCC(=O)O)c(Cl)c1` [Example 7, ({4-Chloro-2-[2-chloro-4-(ethylsulfonyl)phenoxy]phenyl}thio)acetic acid], the pIC50 was 9.10.
`CCS(=O)(=O)Nc1ccc(Oc2cc(Cl)ccc2NCC(=O)O)c(Cl)c1` [Example 37, N-(4-Chloro-2-{2-chloro-4-[(ethylsulfonyl)amino]phenoxy}phenyl)glycine] gave a pIC50 of 8.60.
